Experimental data: ChEMBL document CHEMBL1201862, “PubChem BioAssay data set” (2004)
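Tested at 5 concentrations; 48 h exposure; 96-well plates; endpoints linearly interpolated, else capped at highest concentration. The concentration for 50% growth inhibition is given as GI50.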 Activity calls are given as the source filed them. No stated cut-off is given here; in the data, active = GI50 up to about 1.1 µM and inactive = higher.

What was measured:
Experiment in all cases: inhibition of tumour cell growth, NCI panel, 48 h
[1] = test system: HT-29
[2] = test system: U-251
[3] = test system: SNB-75
[4] = test system: T47D
[5] = test system: HCC 2998
[6] = test system: NCI-H23
[7] = test system: IGROV-1
[8] = test system: BT-549
[9] = test system: A549
[10] = test system: SW-620
[11] = test system: COLO 205
[12] = test system: HL-60
[13] = test system: K562
[14] = test system: HCT-15
[15] = test system: CCRF-CEM
[16] = test system: MDA-N
[17] = test system: HCT-116
[18] = test system: UO-31
[19] = test system: HOP-62
[20] = test system: OVCAR-5
[21] = test system: MDA-MB-231
[22] = test system: SK-MEL-28
[23] = test system: Malme-3M
[24] = test system: SN12C
[25] = test system: Hs-578T
[26] = test system: EKVX
[27] = test system: MOLT-4
[28] = test system: NCI-H522
[29] = test system: RPMI-8226
[30] = test system: OVCAR-8
[31] = test system: CAKI-1
[32] = test system: ACHN
[33] = test system: SF-268
[34] = test system: PC-3
[35] = test system: LOX IMVI
[36] = test system: MDA-MB-435
[37] = test system: SNB-19
[38] = test system: NCI-H460
[39] = test system: 786-0
[40] = test system: NCI-H226
[41] = test system: SF-295
[42] = test system: SF-539
[43] = test system: RXF 393
[44] = test system: DU-145
[45] = test system: UACC-62
[46] = test system: KM12
[47] = test system: NCI/ADR-RES
[48] = test system: MCF7
[49] = test system: SR
[50] = test system: TK-10
[51] = test system: OVCAR-3
[52] = test system: SK-MEL-2
[53] = test system: A498
[54] = test system: M14
[55] = test system: HOP-92
[56] = test system: UACC-257
[57] = test system: SK-OV-3
[58] = test system: OVCAR-4
[59] = test system: SK-MEL-5

CC(C)(C)c1ccc(O)c(C(O)c2ccccn2)c1 (centres undefined)
GI50 [1]: > 100 µM (inactive)
GI50 [2]: 46.1 µM (inactive)
GI50 [3]: > 100 µM (inactive)
GI50 [4]: 34.9 µM (inactive)
GI50 [5]: 34.4 µM (inactive)
GI50 [6]: 56.1 µM (inactive)
GI50 [7]: > 10 µM (inactive)
GI50 [8]: > 100 µM (inactive)
GI50 [9]: 98.2 µM (inactive)
GI50 [10]: > 100 µM (inactive)
GI50 [11]: > 100 µM (inactive)
GI50 [12]: 45.1 µM (inactive)
GI50 [13]: 42.9 µM (inactive)
GI50 [14]: 35.4 µM
GI50 [15]: 38.2 µM (inactive)
GI50 [16]: > 100 µM (inactive)
GI50 [17]: 61.4 µM (inactive)
GI50 [18]: 39.7 µM (inactive)
GI50 [19]: > 100 µM (inactive)
GI50 [20]: 31.5 µM (inactive)
GI50 [21]: > 100 µM (inactive)
GI50 [22]: > 100 µM (inactive)
GI50 [23]: 37.6 µM (inactive)
GI50 [24]: 74 µM (inactive)
GI50 [25]: 91.2 µM (inactive)
GI50 [26]: 54.1 µM (inactive)
GI50 [27]: 54.2 µM (inactive)
GI50 [28]: 68.7 µM (inactive)
GI50 [29]: 58.5 µM (inactive)
GI50 [30]: > 100 µM (inactive)
GI50 [31]: > 100 µM (inactive)
GI50 [32]: > 100 µM (inactive)
GI50 [33]: > 100 µM (inactive)
GI50 [34]: 86.1 µM (inactive)
GI50 [35]: 54.8 µM (inactive)
GI50 [36]: > 100 µM (inactive)
GI50 [37]: > 100 µM (inactive)
GI50 [38]: 48.5 µM (inactive)
GI50 [39]: 61.8 µM (inactive)
GI50 [40]: 85.1 µM (inactive)
GI50 [41]: 57.5 µM (inactive)
GI50 [42]: > 100 µM (inactive)
GI50 [43]: 66.8 µM (inactive)
GI50 [44]: > 100 µM (inactive)
GI50 [45]: 2.24 µM (inactive)
GI50 [46]: 94 µM (inactive)
GI50 [47]: 48 µM (inactive)
GI50 [48]: 77.8 µM (inactive)
GI50 [49]: 70.1 µM (inactive)
GI50 [50]: > 100 µM (inactive)
GI50 [51]: > 100 µM (inactive)

CN(C)/N=C/c1cn(C)c(=O)n(C)c1=O
GI50 [1]: > 100 µM (inactive)
GI50 [2]: > 100 µM (inactive)
GI50 [3]: 35.4 µM (inactive)
GI50 [52]: > 100 µM (inactive)
GI50 [4]: > 100 µM (inactive)
GI50 [5]: > 100 µM (inactive)
GI50 [6]: > 100 µM (inactive)
GI50 [7]: > 100 µM (inactive)
GI50 [8]: > 100 µM (inactive)
GI50 [9]: > 100 µM (inactive)
GI50 [53]: > 100 µM (inactive)
GI50 [10]: > 100 µM (inactive)
GI50 [54]: > 100 µM (inactive)
GI50 [11]: > 100 µM (inactive)
GI50 [55]: > 100 µM (inactive)
GI50 [12]: > 100 µM (inactive)
GI50 [13]: > 100 µM (inactive)
GI50 [14]: > 100 µM
GI50 [56]: > 100 µM (inactive)
GI50 [15]: > 100 µM (inactive)
GI50 [16]: > 100 µM (inactive)
GI50 [17]: > 100 µM (inactive)
GI50 [18]: > 100 µM (inactive)
GI50 [19]: > 100 µM (inactive)
GI50 [20]: > 100 µM (inactive)
GI50 [21]: > 100 µM (inactive)
GI50 [22]: > 100 µM (inactive)
GI50 [23]: > 100 µM (inactive)
GI50 [24]: > 100 µM (inactive)
GI50 [25]: > 100 µM (inactive)
GI50 [26]: > 100 µM (inactive)
GI50 [27]: > 100 µM (inactive)
GI50 [28]: > 100 µM (inactive)
GI50 [29]: > 100 µM (inactive)
GI50 [30]: > 100 µM (inactive)
GI50 [31]: > 100 µM (inactive)
GI50 [32]: > 100 µM (inactive)
GI50 [33]: > 100 µM (inactive)
GI50 [57]: > 100 µM (inactive)
GI50 [34]: > 100 µM (inactive)
GI50 [35]: > 100 µM (inactive)
GI50 [36]: > 100 µM (inactive)
GI50 [37]: > 100 µM (inactive)
GI50 [58]: > 100 µM (inactive)
GI50 [38]: > 100 µM (inactive)
GI50 [39]: > 100 µM (inactive)
GI50 [40]: > 100 µM (inactive)
GI50 [41]: > 100 µM (inactive)
GI50 [42]: > 100 µM (inactive)
GI50 [43]: > 100 µM (inactive)
GI50 [44]: > 100 µM (inactive)
GI50 [45]: > 100 µM (inactive)
GI50 [46]: > 100 µM (inactive)
GI50 [47]: > 100 µM (inactive)
GI50 [48]: > 100 µM (inactive)
GI50 [50]: > 100 µM (inactive)
GI50 [59]: > 100 µM (inactive)
GI50 [51]: > 100 µM (inactive)
